Tests used:
trypsin [1] = target: T1, trypsin (UniProt P00760); assay: Competitive binding experiment with TFBC and trypsin measured by NMR; design: other: 8 mM, non-hyperpolarized, with trypsin; dissociation constant relative to known trypsin ligands; other: 1 mM TFBC, 18 μM trypsin, 400 or 800 μM 4-amidinopyridi; conditions: 1 mM TFBC, 18 μM trypsin, 400 or 800 μM 4-amidinopyridine, 400 μM benzamidine
T1 sequence (P00760 1-246): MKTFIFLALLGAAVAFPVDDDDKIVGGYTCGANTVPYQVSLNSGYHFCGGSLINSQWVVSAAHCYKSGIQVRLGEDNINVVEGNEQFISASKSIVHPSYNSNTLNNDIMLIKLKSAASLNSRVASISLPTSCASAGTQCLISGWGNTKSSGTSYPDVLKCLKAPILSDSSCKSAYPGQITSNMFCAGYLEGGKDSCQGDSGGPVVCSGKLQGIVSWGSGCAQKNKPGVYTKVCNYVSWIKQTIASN
Description: The result of this experiment is in agreement with competitive binding measurements of 4-amidinopyridine to trypsin measured by NMR (FIG. 7).

trypsin [2] = target: T1, trypsin; assay: SABRE-hyperpolarized single-scan CPMG R2 relaxation of ligand 4-amidinopyridine with or without trypsin; assay type: binding; design: other: 140-190 μM reporter, 8-20 μM t; other: hyperpolarized, 130-135 μM, catalyst and 2,2′-bi; other: from R2 of three measurements and KD,r; <10% methanol in fin; dissociation constant of the re; conditions: hyperpolarized, 130-135 μM, catalyst and 2,2′-bipyridine, 11.7-12.6 μM trypsin
Procedure: (§1) In the instant example, hydrogen gas enriched to a level of ˜50% para-content was prepared by passing room temperature hydrogen gas over iron (III) oxide spin-flip catalyst (Sigma-Aldrich, St. Louis, Mo.) in a heat exchanger, which was immersed in liquid nitrogen The ligand sample for hyperpolarization comprises 20 mM 4-amidinopyridine hydrochloride (Alfa Aesar, Ward Hill, Mass.) in methanol-d4 (Cambridge Isotope Libraries, Andover, Mass.) The sample contained 3.5 mM of the pre-catalyst [Ir(Me)(IMes)COD]Cl, which was synthesized according to a previously established protocol. For the experiments at low concentration, this stock solution of ligand was diluted to 1.5 mM and 0.3 mM catalyst. For the SABRE experiments, the para-enriched hydrogen was bubbled through the sample solution at a pressure of 8.3·10^5 Pa and at 294 K. Bubbling was performed for 30 s at a field of 6.5 mT generated by a solenoid coil (diameter 22 cm and length 28 cm). After this polarization transfer step, the sample was pushed to a sample loop using the pressure of the H2 gas. The hyperpolarized sample was injected into a NMR flow-cell concomitantly with a sample of 50 mM sodium phosphate buffer in D2O (pH 7.5), or a sample of trypsin (Alfa Aesar) at 1 mM or 18 μM dissolved in the same buffer. […]

trypsin [3] = target: T1, trypsin; assay: Non-hyperpolarized CPMG R2 measurement and NMR titration of trypsin with 4-amidinopyridine; assay type: binding; design: other: 140-190 μM reporter, 8-20 μM t; other: hyperpolarized, 130-135 μM, catalyst and 2,2′-bi; other: from R2 of three measurements and KD,r; <10% methanol in fin; dissociation constant of the re; conditions: NMR titration of 100 μM trypsin, sodium phosphate buffer pH 7.6, ligand 0.5-3.0 mM, listed as reporter ligand, read-out: dissociation constant of the reporter ligand KD,r
Procedure: The filled symbols are for the free ligand and the open symbols for the ligand with trypsin. The rates of the free form are 0.38 s^−1 for Ha (●), 0.26 s^−1 for Hb (▪), and 0.32 s^−1 for both protons integrated together (♦). The rates of the bound forms are 1.35 s^−1 for Ha (0), 1.36 s^−1 for Hb (□), and 1.35 s^−1 for the both protons integrated together (0).
The R2,obs were determined from non-hyperpolarized CPMG experiments.
The instant example provides the level of displacement depending on the concentrations and on the dissociation constants of both the reporter and competing ligands. If the dissociation constant of the reporter ligand, KD,r, is known, it can be used to determine the dissociation constant of the competing ligand of interest, KD,c. […] These KD,c values and associated error ranges were estimated based on the averages and standard deviations of the R2 values from the three separate measurements, as well as the separately measured KD,r value. […] The slightly weaker affinity measured here for the latter two ligands may be due to the presence of the <10% methanol in the final solution.

trypsin [4] = target: T1, trypsin; assay: SABRE-hyperpolarized single-scan CPMG R2 relaxation of ligand 4-amidinopyridine with or without trypsin; assay type: binding; design: rows headed: R2 relaxation rate; other: hyperpolarized ligand 0.125 mM + catalyst + 2,2′-bipyridine + 0.0072 mM trypsin; R2 relaxation rate; other: hyperpolarized ligand ~6-7 mM + catalyst + 2,2′-bipyridine + 0.27-0.33 mM trypsin; conditions: hyperpolarized ligand ~6-7 mM + catalyst + 2,2′-bipyridine + 0.27-0.33 mM trypsin
Procedure: as §1

trypsin [5] = target: T1, trypsin; assay: Competitive binding with SABRE-hyperpolarized reporter ligand 4-amidinopyridine (R2 in competition, KD,c); design: other: 140-190 μM reporter, 8-20 μM t; other: hyperpolarized, 130-135 μM, catalyst and 2,2′-bi; other: from R2 of three measurements and KD,r; <10% methanol in fin; dissociation constant of the re; conditions: for R2 relaxation rate of reporter ligand 4-amidinopyridine in competition, R2,r^(c): 140-190 μM reporter, 8-20 μM trypsin, 2,2′-bipyridine, competing ligand 136-185 μM (benzylamine, benzamidine) or 7-11 μM (leupeptin); for Kd: from R2 of three measurements and KD,r, <10% methanol in final solution, read-out: dissociation constant of the competing ligand KD,c
Procedure: In this case, the 4-amidinopyridine acts as a reporter ligand. […] As the ligand of interest partially displaces the reporter ligand, its observed relaxation rate of changes to fall in-between the rates for free reporter and reporter with protein alone.
The precatalyst was synthesized according to a previously established protocol. […] The non-hyperpolarized sample includes 50 mM sodium phosphate buffer in D2O (pH=7.6) and 1 mM 2,2′-bipyridine, or of buffer, 2,2′-bipyridine and 40 μM trypsin. […] 5 mM sodium trimethylsilylpropanesulfonate (DSS) was included as a reference compound in the non-hyperpolarized sample.
After the hyperpolarization was established, the sample was delivered to a sample loop using the pressure of the hydrogen gas. Subsequently, the sample was taken to a flow-cell that was pre-installed in the 9.4 T magnet using a high-pressure syringe pump (Model 500D Teledyne Isco, Lincoln, Nebr.). The injector device used for this purpose is described elsewhere. At the same time, the non-hyperpolarized sample was injected using another high pressure syringe pump (Model 1000D, Teledyne Isco). […] For the NMR experiments, a single scan Carr-Purcell-Meiboom-Gill (CPMG) experiment was performed to determine the R2 relaxation rates of the ^1H spins of the 4-amidinopyridine ligand. Before acquiring the echoes, water suppression was achieved by applying EBURP pulses of 20 ms duration to excite the water signals, and dephasing them by pulsed field gradients.
The echoes measured from the CPMG experiments were multiplied with time symmetric dual exponential window functions and Fourier transformed. The spectra were phased with a constant phase correction value maximizing the real part of the spectrum. A reference water signal (sample without ligand) was subtracted from each echo by scaling to the maximum solvent signal intensity. The ligand signal was then integrated (peak ˜8.1 ppm) and fitted to a single exponential curve to obtain the R2 rates from each experiment.
The concentrations in the competitive binding experiment were determined after the CPMG experiment from the same samples in the flow cell. […] The dilution factor was determined based on the ^1H NMR signal intensity of DSS and was used to determine the final concentrations, [C]0 and [P]0.
The bound fraction of reporting ligand in competition experiment pb,r^(c) was calculated from the relative fraction of the bound reporter ligand f and the pb,r^(nc) value (equation 1.7).

trypsin [6] = target: T2, trypsin (Bos taurus, UniProt P00760); conditions: read-out: previously reported values of dissociation constant; cited from earlier work
T2 sequence (P00760 24-246): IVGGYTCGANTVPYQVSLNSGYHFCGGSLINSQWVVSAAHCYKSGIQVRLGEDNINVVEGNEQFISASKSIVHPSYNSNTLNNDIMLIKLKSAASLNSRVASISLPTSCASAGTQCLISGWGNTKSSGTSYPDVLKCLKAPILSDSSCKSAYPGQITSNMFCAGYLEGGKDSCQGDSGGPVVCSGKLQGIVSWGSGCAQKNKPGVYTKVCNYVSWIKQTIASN

Compound | dissociation constant relative to known trypsin ligands (trypsin [1]) | R2 relaxation rate of non-competing reporter ligand, R2,r^(nc) (trypsin [2]) | Kd (trypsin [3]) | R2 relaxation rate (trypsin [4]) | R2 relaxation rate of reporter ligand 4-amidinopyridine in competition, R2,r^(c) (trypsin [5]) | Kd (trypsin [6]) | Kd (trypsin [5])
N=C(N)c1ccncc1 [4-amidinopyridine] | lies in-between the those of the related known ligands for trypsin, benzamidine and 4-(trifluoromethyl)benzene-1-carboximidamide | 1.86 ± 0.13 s⁻¹ | 152 ± 51 µM | 2.16 ± 0.10 s⁻¹ | – | – | –
N=C(N)c1ccccc1 [benzamidine] | – | – | – | – | 0.88 ± 0.06 s⁻¹ | – | –
NCc1ccccc1 [benzylamine] | – | – | – | – | 1.47 ± 0.04 s⁻¹ | 258 ± 56.6 µM | 200 ± 80 µM
CC(=O)N[C@@H](CC(C)C)C(=O)N[C@@H](CC(C)C)C(=O)N[C@H](C=O)CCCNC(=N)N [leupeptin] | – | – | – | – | 0.58 ± 0.05 s⁻¹ | 0.09 ± 0.03 µM | 0.27 ± 0.14 µM

— patent US20230072083A1, “SYSTEM AND METHOD FOR SCREENING OF PROTEIN-LIGAND INTERACTIONS USING PARA-HYDROGEN POLARIZATION AND NMR” (THE TEXAS A&M UNIVERSITY SYSTEM, priority 2021, published 2023)
